We go through one molecule from publication PMC12019328, “Discovery of an ApoE4-targeted small-molecule SirT1 enhancer for the treatment of Alzheimer’s disease” (Scientific Reports, 2025).

Molecules are shown by their SMILES. “And” between values parts separate entries of the source, which are not always exact repeats. Equal entries are not always repeated.

Data set [1] in a line: In vivo pharmacokinetic analysis, brain levels after oral gavage. Details: species or system C57BL/6J mice. The settings on record: single time point one hour, oral gavage 30 mg/Kg, n = 1; 30 mg/kg. The method, then:
[…] One hour later, mice were euthanized by pentobarbital over-anesthesia and trans-cardial collection of blood for isolation of plasma by centrifugation at 10,000 x g for 10 min at 4 °C. Brain tissue was collected for analysis, frozen on dry ice and stored at -80 °C before analysis.
For LC/MS/MS analysis, tissue samples were homogenized in a bead beater using 5 volumes of ice-cold 80% acetonitrile (1/5; mg of tissue/ µL of 80% ACN). Solutions were clarified by centrifugation (16,000 x g, 5 min) and the supernatants were transferred to new tubes and lyophilized. Samples were reconstituted in 100 µL of 50/50/0.1 (water/acetonitrile/formic acid) before analysis via liquid chromatography-tandem mass spectrometry.
A 6460 triple quadrupole mass spectrometer (Agilent Technologies) coupled to a 1290 Infinity HPLC system (Agilent Technologies) with a Phenomenex analytical column (Kinetex 1.7 μm C18 100 Å 100 × 2.1 mm) was used for HPLC. The HPLC method utilized a mixture of solvent A (99.9/1 water/formic acid) and solvent B (99.9/1 acetonitrile/formic acid) and a gradient was used for the elution of the compounds (min/%B: 0/20, 3/20, 19/99, 20/99, 21/20, 30/20).
An internal standard (IS; Reserpine) was added to every sample to account for compound loss during sample processing. Standards were made in drug naïve brain and plasma with increasing amounts of DDL-214- (S1,S2: 0.1 pmol/ S3,S4: 1 pmol/ S5,S6: 10 pmol/ S7,S8: 100 pmol/ S9,S10: 1000 pmol). The standard curve was made by plotting the amount of each compound per standard vs. the ratio of measured chromatographic peak areas corresponding to DDL-214 (DDL-214 -/Reserpine). The trendline equation was then used to calculate the absolute concentrations of DDL-214/-218/-219 in brain tissue and plasma.

A short description of data set [2]: Observation of mice behavior in the PK study. Conditions: oral gavage 10 or 30 mg/Kg. It is filed as in vivo. The method, then: C57BL/6J mice were administered DDL-214, -218, or -219 (n = 3 per compound) by oral gavage at a dose of 30 mg/kg in a volume of 5 mL/Kg based on mouse weight. One hour later, mice were euthanized by pentobarbital over-anesthesia and trans-cardial collection of blood for isolation of plasma by centrifugation at 10,000 x g for 10 min at 4 °C. Brain tissue was collected for analysis, frozen on dry ice and stored at -80 °C before analysis.

Another data set relates to SirT1 mRNA. Put plainly: Hippocampal SirT1 mRNA in ApoE4-TR:5xFAD mice. Conditions: 20 mg/Kg BID, 56 days, vs vehicle. The class given is in vivo. The method, then: The active (-) enantiomer, DDL-218, underwent efficacy testing in ApoE4-TR:5xFAD mice[27] that were 6-7.5 months old at the start of treatment. ApoE4-TR:5xFAD male and female mice received either 20 mg/Kg DDL-218 BID (~ 8- to10-hour interval; total daily dose of 40 mkd) on weekdays and a single 40 mg/Kg dose on weekends (n = 12) or vehicle-only (n = 11); 8 C57BL/6 mice received vehicle-only as behavioral controls. Dosing was by the oral route and by oral feeding using a pipette as previously described, not gavage, as it is safer for repeated oral dosing than gavage. The dose of 20 mg/kg BID (40 mkd) was selected based on findings from PK analysis and was the highest feasible in the formulation used for oral feeding (compound is first solubilized in water, then mixed strawberry syrup diluted in water, for a final vehicle that is 25% syrup and 75% water). […]
Total RNA was isolated from cells or brain tissue (Qiagen RNEasy kit). Total RNA (0.5–1.0 µg) mRNA was then converted to cDNA (SuperScript™ III First-Strand Synthesis SuperMix kit; Thermo Fisher), and gene mRNA levels were measured using a gene-specific qRT-PCR Taqman assays (Thermo Fisher). Gene mRNA levels were normalized to GAPDH mRNA levels measured either in the same cDNA sample or in the same qPCR reaction using multiplexing of gene-of-interest/VIC and GAPDH/FAM, normalized by the delta-delta-Ct method.

The nature of data set [3]: Observable adverse effects in 56-day oral treatment of AD model mice. It is filed as in vivo. Conditions: 56-day oral treatment of ApoE4-expressing AD model mice. The method, then:
The active (-) enantiomer, DDL-218, underwent efficacy testing in ApoE4-TR:5xFAD mice[27] that were 6-7.5 months old at the start of treatment. ApoE4-TR:5xFAD male and female mice received either 20 mg/Kg DDL-218 BID (~ 8- to10-hour interval; total daily dose of 40 mkd) on weekdays and a single 40 mg/Kg dose on weekends (n = 12) or vehicle-only (n = 11); 8 C57BL/6 mice received vehicle-only as behavioral controls. Dosing was by the oral route and by oral feeding using a pipette as previously described, not gavage, as it is safer for repeated oral dosing than gavage. The dose of 20 mg/kg BID (40 mkd) was selected based on findings from PK analysis and was the highest feasible in the formulation used for oral feeding (compound is first solubilized in water, then mixed strawberry syrup diluted in water, for a final vehicle that is 25% syrup and 75% water). The final concentration of DDL-218 was chosen to deliver 20 mg/Kg in a volume of 10–20 µL (adjusted to the weight of each mouse). Mice were treated for 56 days (8 weeks); in week 7, mice underwent Barnes maze testing[29] as described below.

In the case of `CC(N)C(=O)OC(C)(C)Cc1ccncc1` (stereo not shown) [DDL-218], in data set [1], the brain levels is ~ 8400 ng/g and 37.8 µM. In addition, the “changes in mice behavior indicative of drug-induced toxicity” value in data set [2] is “No notable changes in mice behavior”. For the same molecule, the “hippocampal SirT1 mRNA” value in the data set on SirT1 mRNA is listed as “significantly increased”. In addition, the observable adverse effects result in data set [3] is given as “not associated with any observable adverse effects”.
